Legend:
[1] = tested on: B. subtilis 168; test: fitness (endpoint OD595 vs no drug) (fraction); higher = more growth
Summary of the method: (§1)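 Growth medium was TSB, LB Lennox or CY, and plates were kept at 37 °C. Inoculation was at OD595 0.01 in 384-well plates, at 30 µl per well or 55 µl for S. pneumoniae. OD595 was monitored every 30 min for 14 h and background-subtracted using the first reading. Fitness is the optical density on entering stationary phase divided by the robust mean of no-drug controls, with values capped at 1.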

[2] = tested on: S. pneumoniae D39V; test: as above
Summary of the method: as §1

[3] = tested on: S. aureus DSM 20231; test: as above
Summary of the method: as §1

[4] = tested on: S. aureus Newman; test: as above
Summary of the method: as §1

[5] = tested on: B. subtilis 168; test: Bliss interaction score (quartile over a dose matrix) (fitness difference); higher = more antagonism (negative = synergy)
Summary of the method: (§2)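 The Bliss score subtracts expected fitness, the product of the single-drug fitness values, from observed fitness. Fitness is plate-normalised OD595 at entry into stationary phase, relative to the robust no-drug mean and capped at 1, with single-drug fitness inferred from combinations. Summaries are quartiles over technical, biological and donor/recipient replicates.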

[6] = tested on: S. pneumoniae D39V; test: as above
Summary of the method: as §2

[7] = tested on: S. aureus DSM 20231; test: as above
Summary of the method: as §2

[8] = tested on: S. aureus Newman; test: as above
Summary of the method: as §2
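For Bliss interaction score (quartile over a dose matrix) in this document: first quartile when negative (synergy) and third quartile when positive (antagonism).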

COc1cccc2c1C(=O)c1c(O)c3c(c(O)c1C2=O)C[C@@](O)(C(=O)CO)C[C@@H]3O[C@H]1C[C@H](N)[C@H](O)[C@H](C)O1 [Doxorubicin] + CC1=C\[C@@H](O)CC(=O)Cc2nc(co2)C(=O)N2CCC=C2C(=O)O[C@H](C(C)C)[C@H](C)/C=C/C(=O)NC\C=C\1 [Virginiamycin M1]
fitness
Settings | first compound 0.25 µg/mL | first compound 0.5 µg/mL | first compound 0.625 µg/mL | first compound 1 µg/mL | first compound 1.25 µg/mL | first compound 2.5 µg/mL
[1], partner 0.0625 µg/mL | – | – | 0.975 | – | 0.901 | 0.653
[1], partner 0.125 µg/mL | – | – | 0.939 | – | 0.904 | 0.639
[1], partner 0.25 µg/mL | – | – | 0.96 | – | 0.911 | 0.7
[2], partner 0.5 µg/mL | 0.964 | 0.961 | – | 0.969 | – | –
[2], partner 1 µg/mL | 0.997 | ≥ 1 | – | 0.951 | – | –
[2], partner 2 µg/mL | 0.92 | 0.9 | – | 0.898 | – | –
[3], partner 0.0625 µg/mL | – | – | 0.874 | – | 0.872 | 0.779
[3], partner 0.125 µg/mL | – | – | 0.944 | – | 0.903 | 0.82
[3], partner 0.25 µg/mL | – | – | 0.873 | – | 0.862 | 0.802
[4], partner 0.0625 µg/mL | – | – | 0.76 | – | 0.766 | 0.768
[4], partner 0.125 µg/mL | – | – | 0.795 | – | 0.802 | 0.756
[4], partner 0.25 µg/mL | – | – | 0.788 | – | 0.784 | 0.746

fitness, one replicate
Settings | first compound 0.25 µg/mL | first compound 0.5 µg/mL | first compound 0.625 µg/mL | first compound 1 µg/mL | first compound 1.25 µg/mL | first compound 2.5 µg/mL
[2], partner 0.15 µg/mL | 0.86 | 0.865 | – | 0.911 | – | –
[2], partner 0.3 µg/mL | 0.823 | 0.836 | – | 0.888 | – | –
[3], partner 0.5 µg/mL | – | – | 0.873 | – | 0.803 | 0.706
[3], partner 1 µg/mL | – | – | 0.769 | – | 0.708 | 0.761
[4], partner 0.5 µg/mL | – | – | 0.81 | – | 0.809 | 0.703
[4], partner 1 µg/mL | – | – | 0.924 | – | 0.871 | 0.793
[4], partner 2 µg/mL | – | – | 0.837 | – | 0.696 | 0.664

Settings | Bliss interaction score
[5] | 0.0827
[6] | 0.0614
[7] | -0.0467
[8] | -0.0655

Source: the supplement of paper PMC10627819
